The source of these data is EP4635944A1, “2-AZABICYCLO[3.1.1]HEPTANE COMPOUND” (Daiichi Sankyo Company, Limited, priority 2022, dated 2024).

Each structure is given as a SMILES string.

The nature of data set [1]: Evaluation of ERM production (GSH adduct detection in human liver microsomes). In kind it is in vitro ADME. To be noted: test compound 500 µM, human liver microsomes 2 mg/mL, GSH/SI-GSH, 37°C for 60 minutes; negative = no metabolite GSH adduct pair peak. How it is done:
Evaluation of ERM production from OX2R agonist
The test compound (final concentration was 500 µM, dissolved in DMSO/acetonitrile = 1/9), pooled human liver microsomes (final concentration was 2 mg/mL), L-glutathione reduced (GSH, final concentration was 0.5 mM), potassium phosphate buffer (pH 7.4, final concentration was 100 mM), and stable isotope labeled GSH (SI-GSH, final concentration was 0.5 mM) were admixed and preincubated at 37°C for 3 minutes. Thereafter, a mixed solution of glucose-6-phosphate (final concentration was 25 mM), β-nicotinamide adenine dinucleotide phosphate (final concentration was 0.25 mM), glucose-6-phosphate dehydrogenase (final concentration was 2 U/mL), and magnesium chloride (final concentration was 10 mM) was added, and incubation was performed at 37°C for 60 minutes. After the incubation, the reaction was stopped by adding a 2-fold volume of acetonitrile. A portion of the supernatant after centrifugation (about 1200 × g, 4°C, 15 minutes) was injected into a liquid chromatograph quadrupole time-of-flight mass spectrometer (Q-Tof) for analysis. The mass number of metabolites, GSH adduct and SI-GSH adduct, predicted from the chemical structural formula of the test compound was calculated, and the presence of the corresponding peaks in the measurement sample was checked. Peaks with the same retention time and approximately equal peak area of the detected peaks of the metabolites, GSH adduct and SI-GSH adduct, were extracted as pair peaks. The presence of a pair peak determined to be a metabolite GSH adduct was considered positive for ERM production potential, whereas the absence of such a peak was considered negative for ERM production potential.

Data set [2] addresses T1, human OX2R (Homo sapiens, UniProt O43614).
T1 construct: host or cells: CHO-K1 (Chinese Hamster Ovary K1)
T1 sequence (O43614 1-444): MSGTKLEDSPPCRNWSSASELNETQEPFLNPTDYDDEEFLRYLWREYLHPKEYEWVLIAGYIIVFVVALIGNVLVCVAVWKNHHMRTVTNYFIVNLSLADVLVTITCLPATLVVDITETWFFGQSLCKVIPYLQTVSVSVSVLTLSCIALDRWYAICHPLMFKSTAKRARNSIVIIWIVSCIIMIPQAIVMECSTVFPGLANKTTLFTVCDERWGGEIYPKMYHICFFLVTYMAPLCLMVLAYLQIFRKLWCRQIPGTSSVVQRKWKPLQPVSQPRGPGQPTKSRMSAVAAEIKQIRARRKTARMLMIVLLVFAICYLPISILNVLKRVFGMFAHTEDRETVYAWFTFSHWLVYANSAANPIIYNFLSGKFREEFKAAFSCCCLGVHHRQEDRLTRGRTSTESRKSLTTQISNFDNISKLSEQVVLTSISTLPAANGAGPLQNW
Briefly: Evaluation of OX2R agonist activity (intracellular calcium, CHO-K1 cells with forced expression of human OX2R). In kind it is cell-based. To be noted: CHO-K1 cells expressing human OX2R; 100% = 5 µM of the reference compound; read-out: hOX2R EC50. The procedure, abridged:
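Cells seeded 7500/well, cultured 24 h, loaded with Fluo 4-AM (2.5 µg/mL final) plus probenecid for 30 min. Calcium response read as 480/540 nm excitation ratio; max–min signal 5–7 s after compound addition, normalized to buffer (0%) and 5 µM reference agonist (100%). EC50 from concentration series; 0.5% DMSO final.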

Data set [3] is described as follows: Evaluation of metabolic stability in human liver microsomes. In kind it is in vitro ADME. To be noted: test compound 1 µM, human liver microsomes 0.5 mg/mL, 30 minutes at 37°C. On the procedure: Evaluation of metabolic stability of OX2R agonist
The test compound (final concentration was 1 µM, dissolved in DMSO/acetonitrile = 1/99), pooled human liver microsomes (final concentration was 0.5 mg/mL), and sodium phosphate buffer (pH 7.4, final concentration was 100 mM) were admixed and preincubated at 37°C for 15 minutes. Thereafter, a mixed solution of glucose-6-phosphate (final concentration was 10 mM), glucose-6-phosphate dehydrogenase (final concentration was 1 U/mL), and magnesium chloride (final concentration was 3.3 mM) was added and a certain amount of the mixture was collected. Then, an acetonitrile/methanol mixed solution (75/25, v/v) containing a 4.5-fold volume of internal standard substances (final concentrations: phenacetin: 1 ng/mL, niflumic acid: 15 ng/mL, furosemide: 20 ng/mL) was added to stop the reaction (0 min sample). Subsequently, β-nicotinamide adenine dinucleotide phosphate (final concentration was 1 mM) was added, and after 30 minutes of incubation at 37°C, a certain amount of the mixture was collected, to which an acetonitrile/methanol mixed solution (75/25, v/v) containing a 4.5-fold volume of the internal standard substances was added to stop the reaction (30 min sample). For both samples, a portion of the supernatant after centrifugation (about 1200 × g, 4°C, 15 minutes) was injected into a liquid chromatograph tandem quadrupole mass spectrometer (LC-MS/MS) for analysis. The metabolic stability was evaluated by comparing the test compound/internal standard substance ratio of the 30 min sample with the 0 min sample and calculating the residual ratio of the test compound. […]

On to `[2H]C([2H])([2H])[C@@]([2H])(O)C(=O)N1C2CC(C2)[C@H](NS(=O)(=O)CC)[C@@H]1Cc1cccc(-c2ccccc2)c1F` [Example 94, N-{(3S,4S)-3-[(2-Fluoro[biphenyl]-3-yl)methyl]-2-[(2R)-2-hydroxy(^2H4)propanoyl]-2-azabicyclo[3.1.1]heptan-4-yl}ethanesulfonamide], for which the ERM production potential result in data set [1] is recorded as “negative”. For the same compound, the EC50 in data set [2] was 22 nM.

As to `C[C@@H](O)C(=O)N1C2CC(C2)[C@H](NS(C)(=O)=O)[C@@H]1Cc1cccc(-c2ccn(C)n2)c1F` [Example 32, N-{(3S,4S)-3-[2-Fluoro-3-(1-methyl-1H-pyrazol-3-yl)benzyl]-2-[(2R)-2-hydroxypropanoyl]-2-azabicyclo[3.1.1]heptan-4-yl}methanesulfonamide], in data set [1], the ERM production potential entry is on record as “negative”. For the same compound, the EC50 in data set [2] was 535 nM.

As to `CC(C)(O)C(=O)N1C2CC(C2)[C@H](NS(C)(=O)=O)[C@@H]1Cc1cccc(-c2ccccc2)c1F` [Example 10, N-[(3S,4S)-3-[(2-Fluoro[biphenyl]-3-yl)methyl]-2-(2-hydroxy-2-methylpropanoyl)-2-azabicyclo[3.1.1]heptan-4-yl]methanesulfonamide], the ERM production potential result in data set [1] is on record as “negative”. Moreover, in data set [2], the EC50 was 297 nM.

For `CC(C)(O)C(=O)N1C2CC(C2)C(NS(C)(=O)=O)C1Cc1cc(F)cc(-c2ccccc2)c1F` (single isomer, unassigned) [Example 59, N-[(3S,4S)-3-[(2,5-Difluoro[biphenyl]-3-yl)methyl]-2-(2-hydroxy-2-methylpropanoyl)-2-azabicyclo[3.1.1]heptan-4-yl]methanesulfonamide or N-[(3R,4R)-3-[(2,5-difluoro[biphenyl]-3-yl)methyl]-2-(2-hydroxy-2-methylpropanoyl)-2-azabicyclo[3.1.1]heptan-4-yl]methanesulfonamide], the ERM production potential entry in data set [1] is recorded as “negative”. The EC50 in data set [2] is 88 nM.

Regarding `CC(C)(O)C(=O)N1C2CC(F)(C2)[C@H](NS(C)(=O)=O)[C@@H]1Cc1cc(F)cc(-c2ccccc2)c1F` [Example 74, N-[(3S,4R)-3-[(2,5-Difluoro[biphenyl]-3-yl)methyl]-5-fluoro-2-(2-hydroxy-2-methylpropanoyl)-2-azabicyclo[3.1.1]heptan-4-yl]methanesulfonamide], the ERM production potential entry in data set [1] is given as “negative”. Also, the EC50 in data set [2] worked out at 72 nM.

For `CC(C)(O)C(=O)N1C2CC(C2)C(NS(C)(=O)=O)C1Cc1cc(F)cc(-c2cccc(Cl)c2)c1F` (single isomer, unassigned) [Example 67, N-[(3S,4S)-3-[(3'-Chloro-2,5-difluoro[biphenyl]-3-yl)methyl]-2-(2-hydroxy-2-methylpropanoyl)-2-azabicyclo[3.1.1]heptan-4-yl]methanesulfonamide or N-[(3R,4R)-3-[(3'-chloro-2,5-difluoro[biphenyl]-3-yl)methyl]-2-(2-hydroxy-2-methylpropanoyl)-2-azabicyclo[3.1.1]heptan-4-yl]methanesulfonamide], the ERM production potential entry in data set [1] is on record as “negative”. Moreover, the EC50 in data set [2] was 70 nM.

Turning to `CS(=O)(=O)N[C@H]1C2CC(C2)N(C(=O)C2(O)CCC2)[C@H]1Cc1cccc(-c2ccccc2)c1F` [Example 62, N-{(3S,4S)-3-[(2-Fluoro[biphenyl]-3-yl)methyl]-2-[(1-hydroxycyclobutyl)carbonyl]-2-azabicyclo[3.1.1]heptan-4-yl}methanesulfonamide], the ERM production potential entry in data set [1] is given as “negative”. Besides, in data set [2], the EC50 came to 14 nM.

As for `CCS(=O)(=O)NC1C(Cc2cc(F)cc(-c3ccccc3)c2F)N(C(=O)[C@@H](C)O)C2CC1(F)C2` (single isomer, unassigned) [Example 91], in data set [3], the “Human metabolic stability Residual ratio (%)” value is 25%. The EC50 in data set [2] was 39 nM.
